Experimental data: patent publication US5514713A, “Amidinophenol derivatives” (Ono Pharmaceutical Co., Ltd., priority 1993, dated 1996)
Structures can show the parent of a compound that is named as a salt.

How the values were obtained:
trypsin = target: T1, trypsin (Bos taurus, UniProt P00760); test: Inhibitory activity on trypsin; format: biochemical; conditions: trypsin derived from bovine pancreas; BAPNA substrate; pH 8.0; 30° C.; absorbance at 405 nm
T1 construct: from tissue; host or cells: bovine pancreas
T1 sequence (P00760 24-246): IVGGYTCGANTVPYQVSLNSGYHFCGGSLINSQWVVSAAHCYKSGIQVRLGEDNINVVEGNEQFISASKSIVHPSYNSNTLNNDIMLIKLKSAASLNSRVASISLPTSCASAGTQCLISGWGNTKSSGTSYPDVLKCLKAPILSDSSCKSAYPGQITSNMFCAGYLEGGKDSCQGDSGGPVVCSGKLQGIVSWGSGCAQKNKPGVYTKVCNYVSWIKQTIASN
Procedure: (2) Inhibitory activity on trypsin
To a mixture of a 0.2 M HEPES·sodium hydroxide buffer solution (pH 8.0, 100 μl) and distilled water (640 μl), were added solutions of a test compound in respective concentrations or water (10 μl), and a solution of 80 mU/ml trypsin (derived from bovine pancreas) (50 μl) and then the mixture was preincubated for one minute at 30° C. To the solution thus obtained was added 2.5 mM BAPNA (200 μl) and the mixture was incubated at 30° C. The absorbance at 405 nm was measured. Percentage (%) of the absorbance in the presence of a test compound was calculated when the absorbance in the absence thereof was regarded as 100%, and therefrom IC50 value was calculated.
(§1) In the methods hereinbefore described, 10PY-PC represents 3'-palmitoyl-2-(1-opyrenedecanoyl)-L-α-phosphatidylcholine, HEPES represents 4-(2-hydroxyethyl)-1-piperazineethanesulfonic acid, and BAPNA represents α-N-benzoyl-DL-arginine-p-nitroanilide hydrochloride.

PLA2 [1] = target: T2, PLA2 (Sus scrofa, UniProt P00592); test: Inhibitory activity on PLA2; format: biochemical, hog
T2 construct: from tissue; host or cells: hog pancreas
T2 sequence (P00592 23-146): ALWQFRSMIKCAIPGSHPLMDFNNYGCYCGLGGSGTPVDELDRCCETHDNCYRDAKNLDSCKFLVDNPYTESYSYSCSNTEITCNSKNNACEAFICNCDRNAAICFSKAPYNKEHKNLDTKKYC
Procedure: A reaction solution including 50 mM tris-HCl buffer (pH7.5, 874 μl; containing 100 mM sodium chloride, 1 mM EDTA), 1M calcium chloride (6 μl), 1% bovine serum albumin (10 μl) and 2.5 mM 10PY-PC (10 μl), was prepared. To the solution were added solutions of a test compound in respective concentrations or water (50 μl), and a solution of 10 mU/ml PLA2 (derived from hog pancreas) (50 μl). The appearance of fluorescence was measured (Ex=345 nm, Em=396 nm). Percentage of the strength of fluorescence in the presence of a test compound was calculated when the strength of that in the absence thereof was regarded as 100%, and therefrom IC50 value was calculated.
as §1

PLA2 [2] = conditions: Japanese Journal of Clinical Medicine, 48 (1), 165-172, 1990; cited from earlier work

SMILES | IC50 (trypsin) [µM] | IC50 (PLA2 [1]) [µM] | inhibitory activity on PLA2 (in words) (PLA2 [2])
CCOC(=O)C(C(=O)OCC)N(CCCOC)C(=O)/C(C)=C/c1ccc(C(=O)Oc2ccc(C(=N)N)cc2)cc1 [1(b), p-(p-Amidinophenoxycarbonyl)-α-methylcinnamic acid N-1,1-bis(ethoxycarbonyl)methyl-N-3-methoxypropylamide acetate] | 0.17 | 124 | –
CCOC(=O)CN(CCCOC)C(=O)/C(C)=C/c1ccc(C(=O)Oc2ccc(C(=N)N)cc2)cc1 [Example 1(a), acetate] | 0.253 | 106 | –
CCOC(=O)CCN(CCCOC)C(=O)/C(C)=C/c1ccc(C(=O)Oc2ccc(C(=N)N)cc2)cc1 [Example 1, p-(p-Amidinophenoxycarbonyl)-α-methylcinnamic acid N-2-ethoxycarbonylethyl-N-3-methoxypropylamide hydrochloride] | 0.136 | 107 | –
COCCCN(CC(=O)O)C(=O)/C(C)=C/c1ccc(C(=O)Oc2ccc(C(=N)N)cc2)cc1 [Example 3, p-(p-Amidinophenoxycarbonyl)-α-methylcinnamic acid N-carboxylmethyl-N-3-methoxypropylamide methanesulfonate] | 0.14 | – | –
CN(C)C(=O)COC(=O)Cc1ccc(OC(=O)c2ccc(NC(=N)N)cc2)cc1 [camostat mesylate] | – | – | inhibitory activity on PLA2
N=C(N)Nc1ccc(C(=O)Oc2ccc3cc(C(=N)N)ccc3c2)cc1 [nafamostat mesylate] | – | – | inhibitory activity on PLA2
